Reference: US11707453B2, “Treatment of unipolar depressive disorder” (OXFORD UNIVERSITY INNOVATION LIMITED, priority 2017, dated 2023)

Key:
brain extracellular 5-HT = assay: Microdialysis, extracellular 5-HT in hippocampus; format: in vivo, mice
Experimental: The microdialysis probe was connected to a perfusion pump (CMA/100, CMA Microdialysis Ltd.) and perfused (2 μl min^−1) continuously with artificial CSF (140 mM NaCl, 3 mM KCl, 1.2 mM Na2HPO4, 0.27 mM NaH2PO4, 1 mM MgCl2, 2.4 mM CaCl2 and 7.2 mM glucose). After 2 h perfusate samples were collected every 20 min and analysed immediately by HPLC with electrochemical detection (see below).
Once 3 consecutive baseline samples were stable, mice received a single injection of ebselen (10 mg kg^−1 i.p.) or vehicle. Citalopram (5 mg kg^−1 i.p.) was administered 1 h later and dialysates were collected for a further 2 h. At the end of each experiment, brains were removed and probe placement was confirmed by histological examination.
(§1) Both mcrodialysates (20 μl) and brain tissue supernatants (50 μl) were analysed by an HPLC system, comprising a silica-based, reversed phase column (3.0 μm ODS2, 4.6 mm×100 mm, Waters Ltd) coupled to an electrochemical detector (glass carbon working electrode versus Ag/AgCl reference; LC-4C, Bioanalytical systems). For microdialysates, analytes were separated at room temperature by an isocratic mobile phase comprising 12.5% (v/v) methanol, 0.13 M NaHPO4.H2O, 0.025 mM octane sulphonic acid, 0.85 mM EDTA and 2 mM NaCl at pH 3.5, and with the working electrode set at +0.7 V.

5-HT2A receptor [1] = assay: DOI-evoked head-twitch (HTR) and ear scratch (ESR) behavioural responses; format: in vivo, mice; settings: for DOI-evoked ESR / DOI-evoked HTR: vs DOI alone
5-HT2A receptor [2] = assay: DOI-evoked IEG (c-fos, Arc, egr2 mRNA) expression, in situ hybridization; format: in vivo, mice
Experimental: In separate molecular studies, central 5-HT2A receptor function was assessed by measuring DOI-induced mRNA expression of the IEG c-fos, as well as complementary IEGs Arc and egr2 in cortical regions (Gonzalez-Maeso et al., 2007; Jennings et al., 2008). The challenge dose of DOI (2 mg kg^−1 i.p.) was selected on the basis of preliminary dose response studies and evidence that DOI-evoked IEG expression was blocked by a selective 5-HT2A receptor antagonist (Jennings et al., 2008).
Mice were randomly allocated to one of the following treatments (6 mice per group); i) acute ebselen (10 mg kg^−1 i.p.) or vehicle, ii) repeated lithium (3 days; 10 mmol kg^−1 i.p. on day 1, 3 mmol kg^−1 i.p. twice daily on days 2-3) or vehicle. Drug doses and pre-treatment times were selected as noted above; ebselen (1 h), lithium (18 h). Groups of mice were acclimatised to a procedure room for 4 h prior to each experiment. […]
c-Fos, Arc and egr2 mRNA was measured on tissue sections using in situ hybridization (Jennings et al., 2008). […]
Optical density measurements were obtained from the autoradiograms using computer-based image analysis (MCID software). Optical density readings were converted in nCi g^−1 of tissue by calibration with the use of [^14C] microscales, which were co-exposed with the slides. […]

[3] = reported in WO 2012/107735; cited from earlier work
[4] = tested on: 5-HT2A receptor binding sites; assay: Receptor autoradiography, [3H]-ketanserin binding sites in frontal cortex after treatment; format: in vivo, mouse
Experimental: The effect of ebselen and lithium treatment on the abundance of cortical 5-HT2A receptor binding sites was measured using receptor autoradiography. Mice were randomly allocated to one of the following treatments (6 mice per group); i) acute ebselen (10 mg kg^−1 i.p.) or vehicle, ii) repeated ebselen (10 mg kg^−1 i.p., twice daily for 7 days; last injection morning of the 8th day) or vehicle, and iii) repeated lithium (7 days; 10 mmol kg^−1 i.p. on day 1, 3 mmol kg^−1 i.p. twice daily on days 2-7) or vehicle.
Tissue sections (12 μm) were cryostat-cut at the level of the frontal cortex and stored in −80° C. On the day of the experiment, sections were incubated (at room temperature) in Tris-HCl buffer (0.17 M, pH 7.7) for 20 min, and then for 2 h with either 2 nM [^3H]-ketanserin (PerkinElmer) to determine total binding, or 2 nM [^3H]-ketanserin plus 10 μM methysergide to determine non-specific binding. Sections were then washed twice for 10 min with ice-cold 4° C. Tris-HCl buffer (0.17 M, pH 7.7), followed by double deionised water. Finally, slides were air-dried overnight before being exposed to autoradiographic films (BioMax MR, Kodak) for 12 weeks.
Optical density measurements were obtained from the autoradiograms as described above. […] Specific binding was calculated by subtracting non-specific binding from total binding. […]

5-HT2A receptor [5] = assay: Psilocin-evoked head-twitch response (HTR); format: in vivo, mice; settings: ebselen pretreatment; psilocin 2 mg kg^-1 i.p.
5-HT synthesis = 5-HT synthesis (5-HTP accumulation after NSD1015); format: in vivo, mouse
Experimental: (§2) The level of 5-HT synthesis in frontal cortex and hippocampus was obtained by measuring the accumulation of 5-HTP following inhibition of aromatic amino acid decarboxylase. Mice (n=6 per group) were administered ebselen (0.5, 1 or 5 mg kg^−1 i.p.) or vehicle and 1 h later animals were injected with the aromatic amino acid decarboxylase inhibitor NSD1015 (100 mg kg^−1 i.p.). Mice were then culled by cervical dislocation 30 min following NSD1015 and brain tissue was removed and stored at −80° C. Separate experiments measured levels of 5-HT, 5-HIAA and tryptophan in cortex and hippocampus. Mice (n=6 per group) were administered ebselen (0.5, 1 or 5 mg kg^−1 i.p.) or vehicle and then culled by cervical dislocation 1 h post-drug. Brain tissue was dissected out and stored at −80° C. prior to neurochemical analysis.
(§3) On the day of neurochemical analysis, tissue pieces (˜20 mg) of frozen frontal cortex and hippocampus were placed in Eppendorf tubes containing 500 μl perchloric acid (0.09 M) and homogenised using a polytron kinetic homogeniser (15000 rpm for 10 sec). Tissue homogenates were then centrifuged (1000 rpm for 10 min) and the supernatant was transferred in a new Eppendorf tube, protected from light, and kept on ice before analysis using HPLC with electrochemical detection (see below).
as §1
(§4) For measurement of 5-HT, 5-HIAA and tryptophan in brain tissue supernatants, analytes were separated at room temperature by an isocratic mobile phase comprising an isocratic mix of 15% (v/v) methanol, 2 mM 1-octanesulphonic acid, 0.12 M NaHPO4.H2O, 2 mM NaCl, and 0.1 mM EDTA at pH 3.7 with the working electrode set at +0.85V. For measurement of 5-HTP the mobile phase was adjusted to pH 3.4.

[6] = Tissue levels of 5-HT, 5-HIAA and tryptophan; format: in vivo, mouse; settings: 1 h post-drug
Experimental: as §2, §3, §1, §4

[7] = rats; cited from earlier work
[8] = clinical trials for ischemic stroke (Yamaguchi et al 1998); cited from earlier work
[9] = L-690,330 150 or 240 mg kg^-1 i.p. pretreatment
[10] = acute ebselen 1, 5 or 10 mg kg^-1 i.p., DOI 2 mg kg^-1 i.p.
[11] = repeated ebselen 10 mg kg^-1 i.p. for 7 days
[12] = AR-A014418 10 or 20 mg kg^-1 i.p. pretreatment

Which “Peak increase of 5-HT in hippocampal microdialysates above pre-drug values” (brain extracellular 5-HT; citalopram 5 mg kg^-1 i.p., 60 min post injection, awake mice) does the source give for `CN(C)CCCC1(c2ccc(F)cc2)OCc2cc(C#N)ccc21` (stereo not shown) [citalopram, reference compound] here?
The value was “approximately 450%”.

With `CC(Oc1ccc(O)cc1)(P(=O)(O)O)P(=O)(O)O` [L-690,330, [1-(4-hydroxyphenoxy)ethylidene]bisphosphonic acid, reference compound] as the molecule, how does the “DOI-evoked ESR” value (5-HT2A receptor [1]; [9]) read?
Its value is “decreased”.

What about the “DOI-evoked HTR” value (5-HT2A receptor [1]; [9]) of the same molecule?
The value was “decreased”.

Which “Increase in IEG mRNA above vehicle-injected controls” value (5-HT2A receptor [2]; DOI 2 mg kg^-1 i.p., selected brain regions) does the source give for `COc1cc(CC(C)N)c(OC)cc1I` (stereo not shown) [DOI, 1-(2,5-dimethoxy-4-iodophenyl)-propan-2-amine, reference compound] here?
The value was 50-200%.

For `O=c1c2ccccc2[se]n1-c1ccccc1` [Ebselen, 2-phenyl-1,2-benzisoselenazol-3(2H)-one], which “Transfer across the blood/brain barrier” value [3] is on record?
Its value is “capable of transferring across the blood/brain barrier”.

And the “[^3H]-Ketanserin binding sites” value ([4]; acute ebselen 10 mg kg^-1 i.p. (2h), vehicle 4.33 ± 0.66)?
The value was 3.36 ± 0.38 nCi g^-1 of tissue.

What about the “[^3H]-Ketanserin binding sites” value ([4]; repeated ebselen 10 mg kg^-1 i.p. (7 days), vehicle 6.60 ± 0.27) of the same molecule?
The value was 6.12 ± 0.63 nCi g^-1 of tissue.

And the “DOI-evoked ESR” value (5-HT2A receptor [1]; [10])?
The value was “dose-related decrease”.

And the “DOI-evoked HTR” value (5-HT2A receptor [1]; [10])?
The value was “dose-related decrease”.

What about the “Inhibitory effect on DOI-evoked ESR” value (5-HT2A receptor [1]; [11]) of the same molecule?
The value was “persisted”.

And the “Inhibitory effect on DOI-evoked HTR” value (5-HT2A receptor [1]; [11])?
Its value is “persisted”.

What about the “Psilocin-induced HTR” value (5-HT2A receptor [5]) of the same molecule?
Its value is “decreased”.

And the “5-HTP Cortex” value (5-HT synthesis; ebselen 0.5 mg kg^-1 i.p.)?
The value was 109.7 ± 10.6 % of vehicle.

What about the “5-HTP Hippocampus” value (5-HT synthesis; ebselen 0.5 mg kg^-1 i.p.) of the same molecule?
The value was 87.9 ± 14.6 % of vehicle.

What about the “5-HTP Cortex” value (5-HT synthesis; ebselen 1 mg kg^-1 i.p.) of the same molecule?
The value was 100.4 ± 3.7 % of vehicle.

And the “5-HTP Hippocampus” value (5-HT synthesis; ebselen 1 mg kg^-1 i.p.)?
The value was 95.6 ± 6.5 % of vehicle.

What about the “5-HTP Cortex” value (5-HT synthesis; ebselen 5 mg kg^-1 i.p.) of the same molecule?
Its value is 202.5 ± 15.0 % of vehicle.

And the “5-HTP Hippocampus” value (5-HT synthesis; ebselen 5 mg kg^-1 i.p.)?
The value was 152.6 ± 9.0 % of vehicle.

What about the “5-HIAA Cortex” value ([6]; ebselen 0.5 mg kg^-1 i.p.) of the same molecule?
Its value is 83.3 ± 14.4 % of vehicle.

What about the “5-HIAA Hippocampus” value ([6]; ebselen 0.5 mg kg^-1 i.p.) of the same molecule?
Its value is 129.8 ± 12.9 % of vehicle.

And the “5-HT Cortex” value ([6]; ebselen 0.5 mg kg^-1 i.p.)?
The value was 158.1 ± 14.7 % of vehicle.

What about the “5-HT Hippocampus” value ([6]; ebselen 0.5 mg kg^-1 i.p.) of the same molecule?
The value was 234.4 ± 23.9 % of vehicle.

And the “Tryptophan Cortex” value ([6]; ebselen 0.5 mg kg^-1 i.p.)?
Its value is 105.0 ± 10.3 % of vehicle.

And the “Tryptophan Hippocampus” value ([6]; ebselen 0.5 mg kg^-1 i.p.)?
The value was 210.2 ± 35.1 % of vehicle.

What about the “5-HIAA Cortex” value ([6]; ebselen 1 mg kg^-1 i.p.) of the same molecule?
The value was 75.9 ± 6.3 % of vehicle.

And the “5-HIAA Hippocampus” value ([6]; ebselen 1 mg kg^-1 i.p.)?
The value was 141.0 ± 9.5 % of vehicle.

What about the “5-HT Cortex” value ([6]; ebselen 1 mg kg^-1 i.p.) of the same molecule?
Its value is 148.6 ± 11.2 % of vehicle.

And the “5-HT Hippocampus” value ([6]; ebselen 1 mg kg^-1 i.p.)?
The value was 225.9 ± 14.3 % of vehicle.

And the “Tryptophan Cortex” value ([6]; ebselen 1 mg kg^-1 i.p.)?
The value was 122.7 ± 20.6 % of vehicle.

And the “Tryptophan Hippocampus” value ([6]; ebselen 1 mg kg^-1 i.p.)?
The value was 128.5 ± 13.6 % of vehicle.

What about the “5-HIAA Cortex” value ([6]; ebselen 5 mg kg^-1 i.p.) of the same molecule?
The value was 88.7 ± 3.8 % of vehicle.

What about the “5-HIAA Hippocampus” value ([6]; ebselen 5 mg kg^-1 i.p.) of the same molecule?
Its value is 139.2 ± 17.0 % of vehicle.

And the “5-HT Cortex” value ([6]; ebselen 5 mg kg^-1 i.p.)?
The value was 130.9 ± 4.8 % of vehicle.

And the “5-HT Hippocampus” value ([6]; ebselen 5 mg kg^-1 i.p.)?
Its value is 189.4 ± 21.4 % of vehicle.

And the “Tryptophan Cortex” value ([6]; ebselen 5 mg kg^-1 i.p.)?
The value was 131.9 ± 14.5 % of vehicle.

What about the “Tryptophan Hippocampus” value ([6]; ebselen 5 mg kg^-1 i.p.) of the same molecule?
The value was 135.4 ± 17.2 % of vehicle.

And the “Effect of citalopram on extracellular 5-HT after ebselen pretreatment” value (brain extracellular 5-HT; ebselen 10 mg kg^-1 i.p. 1 h before citalopram 5 mg kg^-1 i.p., greatest effect 20-40 min post citalopram)?
The value was “enhanced”.

What about the “Extracellular 5-HT, ebselen alone” value (brain extracellular 5-HT; ebselen 10 mg kg^-1 i.p., vs vehicle-injected controls) of the same molecule?
Its value is “no effect”.

And the “IEG responses to DOI (Arc, c-fos, egr-2 mRNA)” value (5-HT2A receptor [2]; ebselen 10 mg kg^-1 i.p., cingulate and somatosensory cortex (Arc, c-fos), caudate nucleus and endopiriform cortex (egr-2))?
The value was “attenuated”.

And the LD50 [7]?
Its LD50 is “greater than 1000 mg/kg”.

What about the “Toxicity in humans at pharmaceutically effective dosages” value [8] of the same molecule?
The value was “sufficiently non-toxic”.

With `COc1ccc(CNC(=O)Nc2ncc([N+](=O)[O-])s2)cc1` [AR-A014418, N-[(4-methoxyphenyl)methyl]-N′-(5-nitro-2-thiazolyl) urea, reference compound] as the molecule, how does the “DOI-induced ESR” value (5-HT2A receptor [1]; [12]) read?
Its value is “did not affect”.

What about the “DOI-induced HTR” value (5-HT2A receptor [1]; [12]) of the same molecule?
Its value is “did not affect”.
